Laboratory results published in ChEMBL document CHEMBL5046309, “Discovery of SHR5133, a Highly Potent and Novel HBV Capsid Assembly Modulator” (ACS Med Chem Lett, 2022).
In brackets after ≈: the same amount, converted by molar mass. Values belong to the compound of their own block, whether it stands above or below them. Activity calls are given as the source filed them. The rule behind the calls is not given here.

Legend:
[1] = tested on: HepG2 2.2.15; experiment: Cytotoxicity against human HepG2.2.15 cells assessed as reduction in cell viability incubated for 72 hrs by cell titer-glo assay; format: functional
[2] = tested on: Hepatitis B virus; experiment: Antiviral activity against HBV infected in C57BL/6 mouse assessed as reduction on HBeAg level at 10 mg/kg,po BID for 28 days by ELISA; format: functional, organism-based; details: time 28.0 day
[3] = tested on: Hepatitis B virus; experiment: Antiviral activity against HBV infected in C57BL/6 mouse assessed as reduction on HBsAg level at 10 mg/kg,po BID for 28 days by ELISA; format: functional, organism-based; details: time 28.0 day
[4] = tested on: Hepatitis B virus; experiment: Antiviral activity against HBV infected in C57BL/6 mouse assessed as reduction on HBsAg level at 400 mg/kg,po BID for 28 days by ELISA; format: functional, organism-based; details: time 28.0 day
[5] = tested on: Hepatitis B virus; experiment: Antiviral activity against HBV infected in C57BL/6 mouse assessed as reduction on HBeAg level at 400 mg/kg,po BID for 28 days by ELISA; format: functional, organism-based; details: time 28.0 day
[6] = Microsomal stability in mouse liver microsome assessed as half life measured up to 24 hrs by LC-MS/MS analysis; format: ADME; details: liver microsomes
[7] = AUC(0 to 24 hrs) in nude mouse at 2 mg/kg, po measured up to 24 hrs by LC-MS/MS analysis; format: ADME, organism-based; set-up: route oral, dose 2 mg/kg, time <=24; details: in vivo
[8] = biological target: Cytochrome P450 2C9 (Homo sapiens, UniProt P11712); experiment: Inhibition of recombinant human CYP2C9 by LC-MS/MS analysis; format: ADME
Chain of Cytochrome P450 2C9 (P11712 whole entry): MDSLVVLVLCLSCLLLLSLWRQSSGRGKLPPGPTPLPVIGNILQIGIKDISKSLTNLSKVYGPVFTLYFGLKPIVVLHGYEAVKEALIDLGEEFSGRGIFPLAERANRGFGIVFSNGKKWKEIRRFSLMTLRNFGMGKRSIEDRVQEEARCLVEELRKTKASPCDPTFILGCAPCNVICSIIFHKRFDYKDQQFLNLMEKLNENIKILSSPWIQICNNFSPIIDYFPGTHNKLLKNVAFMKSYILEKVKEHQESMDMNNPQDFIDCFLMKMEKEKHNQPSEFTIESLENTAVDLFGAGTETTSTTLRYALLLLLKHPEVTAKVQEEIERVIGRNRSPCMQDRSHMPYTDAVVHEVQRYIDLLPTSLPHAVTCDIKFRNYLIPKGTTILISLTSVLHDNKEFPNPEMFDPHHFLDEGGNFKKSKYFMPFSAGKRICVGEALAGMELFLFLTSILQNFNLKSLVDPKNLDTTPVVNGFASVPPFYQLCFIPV

[9] = Half life in nude mouse at 10 mg/kg, po measured up to 24 hrs by LC-MS/MS analysis; format: ADME, organism-based; details: in vivo
[10] = AUC(0 to 24 hrs) in Beagle dog at 0.5 mg/kg, po measured up to 24 hrs by LC-MS/MS analysis; format: ADME, organism-based, Canis lupus familiaris; set-up: route oral, dose 0.5 mg/kg, time <=24; details: in vivo
[11] = Cmax in nude mouse at 10 mg/kg, po measured up to 24 hrs by LC-MS/MS analysis; format: ADME, organism-based; set-up: route oral, dose 10 mg/kg, time <=24; details: in vivo
[12] = Plasma protein binding in dog by LC-MS/MS analysis; format: ADME, cell-free, Canis lupus familiaris; details: read-out: PPB (converted)
[13] = Cmax in Sprague-Dawley rat at 2 mg/kg, po measured up to 24 hrs by LC-MS/MS analysis; format: ADME, organism-based; set-up: route oral, dose 2 mg/kg, time <=24; details: in vivo
[14] = Half life in Beagle dog at 0.5 mg/kg, po measured up to 24 hrs by LC-MS/MS analysis; format: ADME, organism-based, Canis lupus familiaris; details: in vivo
[15] = biological target: T1, Cytochrome P450 1A2 (Homo sapiens, UniProt P05177); experiment: Inhibition of recombinant human CYP1A2 by LC-MS/MS analysis; format: ADME
T1 sequence (P05177 whole entry): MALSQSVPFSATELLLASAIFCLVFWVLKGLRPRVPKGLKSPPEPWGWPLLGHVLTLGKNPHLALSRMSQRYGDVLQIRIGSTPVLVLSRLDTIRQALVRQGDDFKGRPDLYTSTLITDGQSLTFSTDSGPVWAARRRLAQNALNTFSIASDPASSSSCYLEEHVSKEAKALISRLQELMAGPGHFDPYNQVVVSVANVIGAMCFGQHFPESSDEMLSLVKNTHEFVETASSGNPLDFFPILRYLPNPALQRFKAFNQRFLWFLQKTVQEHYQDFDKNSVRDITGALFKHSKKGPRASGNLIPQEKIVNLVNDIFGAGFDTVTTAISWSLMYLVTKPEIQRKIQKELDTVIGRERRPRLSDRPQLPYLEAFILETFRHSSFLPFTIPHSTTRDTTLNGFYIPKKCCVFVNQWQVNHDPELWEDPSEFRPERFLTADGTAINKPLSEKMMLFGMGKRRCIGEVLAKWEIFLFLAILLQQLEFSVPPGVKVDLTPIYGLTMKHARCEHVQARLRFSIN

[16] = Plasma protein binding in human by LC-MS/MS analysis; format: ADME, cell-free; details: read-out: PPB (converted)
[17] = Half life in nude mouse at 2 mg/kg, po measured up to 24 hrs by LC-MS/MS analysis; format: ADME, organism-based; details: in vivo
[18] = Lipophilicity, logD of compound at pH 7.4 by LC-MS/MS analysis; format: physicochemical; details: buffer
[19] = biological target: T2, Cytochrome P450 3A4 (Homo sapiens, UniProt P08684); experiment: Inhibition of recombinant human CYP3A4 using midazolam as substrate by LC-MS/MS analysis; format: ADME
T2 sequence (P08684 whole entry): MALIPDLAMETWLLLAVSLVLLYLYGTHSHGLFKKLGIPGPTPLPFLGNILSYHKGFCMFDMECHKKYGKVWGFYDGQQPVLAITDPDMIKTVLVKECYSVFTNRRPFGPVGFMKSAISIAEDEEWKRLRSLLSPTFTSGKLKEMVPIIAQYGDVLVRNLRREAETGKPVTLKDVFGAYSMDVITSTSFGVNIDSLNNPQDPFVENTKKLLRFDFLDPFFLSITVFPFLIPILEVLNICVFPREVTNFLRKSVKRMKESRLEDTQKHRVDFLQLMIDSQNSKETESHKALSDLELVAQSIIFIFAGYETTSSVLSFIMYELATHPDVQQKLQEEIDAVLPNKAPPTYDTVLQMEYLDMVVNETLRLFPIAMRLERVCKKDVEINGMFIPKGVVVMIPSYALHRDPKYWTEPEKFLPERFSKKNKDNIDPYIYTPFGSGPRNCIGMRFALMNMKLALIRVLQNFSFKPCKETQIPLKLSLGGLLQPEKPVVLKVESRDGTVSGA

[20] = Plasma protein binding in rat by LC-MS/MS analysis; format: ADME, cell-free; details: read-out: PPB (converted)
[21] = biological target: T2, Cytochrome P450 3A4; experiment: Inhibition of recombinant human CYP3A4 using testosterone as substrate by LC-MS/MS analysis; format: ADME
[22] = Apparent permeability of the compound across basolateral to apical side in […] measured up to 24 hrs by LC-MS/MS analysis; format: ADME, cell-based
[23] = Solubility of the compound in FaSSIF using amorphous form of sample by LC-MS/MS analysis; format: physicochemical
[24] = Plasma protein binding in mouse by LC-MS/MS analysis; format: ADME, cell-free; details: read-out: PPB (converted)
[25] = biological target: Cytochrome P450 2D6 (Homo sapiens, UniProt P10635); experiment: Inhibition of recombinant human CYP2D6 by LC-MS/MS analysis; format: ADME
Chain of Cytochrome P450 2D6 (P10635 whole entry): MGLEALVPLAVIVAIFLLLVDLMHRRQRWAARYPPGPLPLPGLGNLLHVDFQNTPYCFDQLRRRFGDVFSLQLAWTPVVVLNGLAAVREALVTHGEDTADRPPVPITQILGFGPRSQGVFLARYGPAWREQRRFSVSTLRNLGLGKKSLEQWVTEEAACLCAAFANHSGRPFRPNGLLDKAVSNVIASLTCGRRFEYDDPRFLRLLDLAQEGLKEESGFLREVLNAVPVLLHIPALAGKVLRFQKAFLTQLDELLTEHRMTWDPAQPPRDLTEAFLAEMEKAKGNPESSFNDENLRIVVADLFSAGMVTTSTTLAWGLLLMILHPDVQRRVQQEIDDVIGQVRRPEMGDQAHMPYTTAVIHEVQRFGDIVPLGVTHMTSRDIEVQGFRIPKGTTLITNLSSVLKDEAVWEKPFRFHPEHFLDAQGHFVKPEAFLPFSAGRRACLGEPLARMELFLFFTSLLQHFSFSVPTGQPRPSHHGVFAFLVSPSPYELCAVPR

[26] = Clearance in nude mouse at 1 mg/kg, iv measured up to 24 hrs by LC-MS/MS analysis; format: ADME, organism-based; details: in vivo
[27] = tested on: Hepatitis B virus; experiment: Antiviral activity against HBV infected in C57BL/6 mouse assessed as reduction on HBsAg level at 3 to 30 mg/kg,po BID for 28 days by ELISA; format: functional, organism-based; details: dose 3-30 mg/kg, time 28.0 day
[28] = AUC(0 to 24 hrs) in nude mouse at 100 mg/kg, po measured up to 24 hrs by LC-MS/MS analysis; format: ADME, organism-based; set-up: route oral, dose 100 mg/kg, time <=24; details: in vivo
[29] = Efflux ratio of apparent permeability across basolateral to apical side over apical to basolateral side in […] by LC-MS/MS analysis; format: ADME, cell-based
[30] = Cmax in Beagle dog at 0.5 mg/kg, po measured up to 24 hrs by LC-MS/MS analysis; format: ADME, organism-based, Canis lupus familiaris; set-up: route oral, dose 0.5 mg/kg, time <=24; details: in vivo
[31] = Solubility of the compound in phosphate buffer at pH 7.4 using amorphous form of sample by LC-MS/MS analysis; format: physicochemical
[32] = Microsomal stability in dog liver microsome assessed as half life measured up to 24 hrs by LC-MS/MS analysis; format: ADME, Canis lupus familiaris; details: liver microsomes
[33] = AUC(0 to 24 hrs) in nude mouse at 10 mg/kg, po measured up to 24 hrs by LC-MS/MS analysis; format: ADME, organism-based; set-up: route oral, dose 10 mg/kg, time <=24; details: in vivo
[34] = Clearance in Beagle dog at 1 mg/kg, iv measured up to 24 hrs by LC-MS/MS analysis; format: ADME, organism-based, Canis lupus familiaris; details: in vivo
[35] = AUC(0 to 24 hrs) in Sprague-Dawley rat at 2 mg/kg, po measured up to 24 hrs by LC-MS/MS analysis; format: ADME, organism-based; set-up: route oral, dose 2 mg/kg, time <=24; details: in vivo
[36] = Clearance in Sprague-Dawley rat at 1 mg/kg, iv measured up to 24 hrs by LC-MS/MS analysis; format: ADME, organism-based; details: in vivo
[37] = tested on: Hepatitis B virus; experiment: Antiviral activity against HBV infected in C57BL/6 mouse assessed as HBV DNA reduction at 3 to 30 mg/kg,po BID for 28 days by qPCR method; format: functional, organism-based; details: dose 3-30 mg/kg, time 28.0 day
[38] = Half life in nude mouse at 100 mg/kg, po measured up to 24 hrs by LC-MS/MS analysis; format: ADME, organism-based; details: in vivo
[39] = biological target: Cytochrome P450 2C19 (Homo sapiens, UniProt P33261); experiment: Inhibition of recombinant human CYP2C19 by LC-MS/MS analysis; format: ADME
Chain of Cytochrome P450 2C19 (P33261 whole entry): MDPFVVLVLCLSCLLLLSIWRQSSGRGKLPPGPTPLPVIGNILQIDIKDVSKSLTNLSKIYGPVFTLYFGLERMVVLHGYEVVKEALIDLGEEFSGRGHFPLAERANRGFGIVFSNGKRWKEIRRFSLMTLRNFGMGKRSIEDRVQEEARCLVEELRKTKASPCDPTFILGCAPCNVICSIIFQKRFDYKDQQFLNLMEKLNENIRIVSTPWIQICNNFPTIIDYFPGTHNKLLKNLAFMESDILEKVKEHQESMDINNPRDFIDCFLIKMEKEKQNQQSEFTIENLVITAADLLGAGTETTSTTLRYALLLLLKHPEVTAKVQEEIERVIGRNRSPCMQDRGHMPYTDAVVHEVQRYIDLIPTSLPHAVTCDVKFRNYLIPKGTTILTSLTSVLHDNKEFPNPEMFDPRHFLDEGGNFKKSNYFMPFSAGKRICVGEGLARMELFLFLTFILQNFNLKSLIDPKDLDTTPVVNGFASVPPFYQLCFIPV

[40] = Cmax in nude mouse at 100 mg/kg, po measured up to 24 hrs by LC-MS/MS analysis; format: ADME, organism-based; set-up: route oral, dose 100 mg/kg, time <=24; details: in vivo
[41] = Microsomal stability in rat liver microsome assessed as half life measured up to 24 hrs by LC-MS/MS analysis; format: ADME; details: liver microsomes
[42] = Microsomal stability in human liver microsome assessed as half life measured up to 24 hrs by LC-MS/MS analysis; format: ADME; details: liver microsomes
[43] = Cmax in nude mouse at 2 mg/kg, po measured up to 24 hrs by LC-MS/MS analysis; format: ADME, organism-based; set-up: route oral, dose 2 mg/kg, time <=24; details: in vivo
[44] = Apparent permeability of the compound across apical to basolateral side in […] measured up to 24 hrs by LC-MS/MS analysis; format: ADME, cell-based
[45] = biological target: Voltage-gated inwardly rectifying potassium channel KCNH2 (Homo sapiens, UniProt Q12809); experiment: Inhibition of human ERG by LC-MS/MS analysis; format: toxicity
Chain of Voltage-gated inwardly rectifying potassium channel KCNH2 (Q12809 whole entry): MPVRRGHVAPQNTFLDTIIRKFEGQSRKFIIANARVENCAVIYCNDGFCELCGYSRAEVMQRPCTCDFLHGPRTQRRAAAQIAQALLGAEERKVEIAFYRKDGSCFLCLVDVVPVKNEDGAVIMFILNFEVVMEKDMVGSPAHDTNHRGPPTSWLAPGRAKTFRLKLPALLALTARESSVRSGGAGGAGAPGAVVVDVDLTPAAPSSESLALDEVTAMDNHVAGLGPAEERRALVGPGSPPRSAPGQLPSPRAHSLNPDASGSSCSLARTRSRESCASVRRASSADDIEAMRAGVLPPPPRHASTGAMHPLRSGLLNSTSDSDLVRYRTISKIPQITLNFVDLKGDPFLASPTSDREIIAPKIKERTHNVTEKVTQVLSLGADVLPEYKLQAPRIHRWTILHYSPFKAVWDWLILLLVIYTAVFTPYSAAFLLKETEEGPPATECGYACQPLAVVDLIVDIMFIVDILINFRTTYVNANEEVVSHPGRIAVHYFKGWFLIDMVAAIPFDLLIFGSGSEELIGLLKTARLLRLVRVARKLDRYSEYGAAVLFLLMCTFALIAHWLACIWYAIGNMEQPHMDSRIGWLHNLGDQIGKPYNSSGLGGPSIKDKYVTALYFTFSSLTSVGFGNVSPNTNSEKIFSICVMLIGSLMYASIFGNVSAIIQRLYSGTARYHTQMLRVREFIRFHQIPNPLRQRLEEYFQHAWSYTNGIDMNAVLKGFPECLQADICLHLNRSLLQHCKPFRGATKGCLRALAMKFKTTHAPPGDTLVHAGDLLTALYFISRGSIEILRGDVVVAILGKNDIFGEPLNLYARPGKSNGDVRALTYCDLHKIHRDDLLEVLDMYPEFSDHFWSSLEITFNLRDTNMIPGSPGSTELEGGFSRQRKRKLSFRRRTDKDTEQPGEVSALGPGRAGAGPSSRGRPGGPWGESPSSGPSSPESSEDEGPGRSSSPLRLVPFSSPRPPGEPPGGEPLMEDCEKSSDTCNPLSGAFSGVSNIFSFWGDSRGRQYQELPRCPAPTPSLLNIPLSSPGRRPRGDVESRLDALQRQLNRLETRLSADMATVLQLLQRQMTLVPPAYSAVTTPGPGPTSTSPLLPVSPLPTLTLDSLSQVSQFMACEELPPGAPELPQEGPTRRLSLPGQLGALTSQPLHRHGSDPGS

[46] = tested on: Hepatitis B virus; experiment: Antiviral activity against HBV infected in C57BL/6 mouse assessed as reduction on HBeAg level at 3 to 30 mg/kg,po BID for 28 days by ELISA; format: functional, organism-based; details: dose 3-30 mg/kg, time 28.0 day
[47] = biological target: Core antigen (Hepatitis B virus) (UniProt Q03732); experiment: Modulation of capsid assembly in HBV infected in human HepG2.2.15 cells assessed as maximal inhibition of viral DNA replication preincubated for 3 days followed by replacement with fresh medium containing compound and measured after 3 day by qPCR analysis; format: cell-based; details: filed as modulator, time 6.0 day
Chain of Core antigen (Hepatitis B virus) (Q03732 as listed by the source): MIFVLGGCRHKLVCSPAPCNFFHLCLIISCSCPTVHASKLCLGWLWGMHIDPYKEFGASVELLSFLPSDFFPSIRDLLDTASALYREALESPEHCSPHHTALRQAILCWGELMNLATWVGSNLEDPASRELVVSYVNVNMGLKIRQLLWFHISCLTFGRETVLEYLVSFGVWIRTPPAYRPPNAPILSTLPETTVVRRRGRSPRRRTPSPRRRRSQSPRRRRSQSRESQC

Compound: C[C@H]1Cn2ncc(C(=O)N[C@H](C)C(F)(F)F)c2CN1C(=O)Nc1ccc(F)c(C#N)c1
CC50 [1]: > 100 µM

Compound: C[C@H](NS(=O)(=O)c1cc(C(=O)Nc2ccc(F)c(C#N)c2)n(C)c1)C(F)(F)F
Activity [2]: inactive
Activity [3]: inactive

Compound: O=C(Nc1cc(F)c(F)c(F)c1)c1ccc(F)c(S(=O)(=O)N2CCC(O)CC2)c1
Activity [4]: inactive
Activity [5]: inactive

half-life [6]: > 120 min
AUC [7]: 7.16 µg/mL/h
IC50 [8]: > 30 µM
half-life [9]: 203 min
AUC [10]: 9.01 µg/mL/h
Cmax [11]: 4600 ng/mL
fraction unbound [12]: 0.23
Cmax [13]: 597 ng/mL
half-life [14]: 1850 min
IC50 [15]: > 30 µM
fraction unbound [16]: 0.113
half-life [17]: 302 min
logD [18]: 2.27
IC50 [19]: > 30 µM
fraction unbound [20]: 0.244
IC50 [21]: > 30 µM
Papp B→A at 24 h [22]: 51.4 ×10⁻⁶ cm/s
solubility [23]: 1640 µM (≈ 718 µg/mL)
fraction unbound [24]: 0.12
IC50 [25]: > 30 µM
clearance [26]: 5.3 mL/min/kg
AUC [28]: 28.9 µg/mL/h
efflux ratio [29]: 4.73
Cmax [30]: 559 ng/mL
solubility [31]: 106 µM (≈ 46.5 µg/mL)
half-life [32]: > 139 min
AUC [33]: 24.4 µg/mL/h
clearance [34]: 1.1 mL/min/kg
AUC [35]: 7.98 µg/mL/h
clearance [36]: 4.5 mL/min/kg
half-life [38]: 298 min
IC50 [39]: > 30 µM
Cmax [40]: 22200 ng/mL
half-life [41]: > 67 min
half-life [42]: > 139 min
Cmax [43]: 1120 ng/mL
Papp A→B at 24 h [44]: 10.9 ×10⁻⁶ cm/s
Compound: C[C@H]1Cn2cnc(C(=O)N[C@H](C)C(F)(F)F)c2CN1C(=O)Nc1ccc(F)c(C#N)c1
CC50 [1]: > 100 µM
Activity [27]: inactive
Activity [37]: Dose-Dependent Effect
IC50 [45]: > 30 µM
Activity [46]: inactive

Compound: C[C@H]1Cn2ncc(C(=O)N[C@H](C)C(F)(F)F)c2CN1C(=O)Nc1cc(F)nc(F)c1
CC50 [1]: > 100 µM

Compound: C[C@H]1CN(C(=O)Nc2ccc(F)c(F)c2)Cc2c(C(=O)N[C@H](C)C(F)(F)F)ncn21
Activity [1]: inactive
Emax [47]: 60%
